Laboratory results taken from paper PMC1810525, “Antagonism of the prostaglandin D2 receptor CRTH2 attenuates asthma pathology in mouse eosinophilic airway inflammation” (Respiratory Research, 2007).
Like-named read-outs stand apart in the source and are kept apart here.

Key:
mTP [1] = molecular target: T1, mTP (Mus musculus, UniProt P30987); assay: Inositol phosphate accumulation assay, HEK cells transfected with mTP (Schild analysis vs U46619); assay type: cell-based
T1 construct: expressed in transfected cells; host or cells: HEK293 (transient, pcDNA3.1(+))
T1 sequence (P30987 1-341): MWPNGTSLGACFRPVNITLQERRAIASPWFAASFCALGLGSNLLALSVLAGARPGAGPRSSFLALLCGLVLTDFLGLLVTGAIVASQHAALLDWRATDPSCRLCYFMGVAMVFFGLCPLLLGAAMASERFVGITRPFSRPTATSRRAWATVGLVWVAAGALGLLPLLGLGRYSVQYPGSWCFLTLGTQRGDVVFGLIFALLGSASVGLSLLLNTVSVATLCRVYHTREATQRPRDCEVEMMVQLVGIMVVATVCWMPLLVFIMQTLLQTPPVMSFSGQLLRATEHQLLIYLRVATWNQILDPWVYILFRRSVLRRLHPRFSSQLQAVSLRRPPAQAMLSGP
Excerpt: (§1) The coding sequence of mCRTH2 (genbank accession no. AF054507) was amplified by PCR from mouse hippocampus cDNA and inserted into the pcDNA3.1(+) expression vector (invitrogen). A HEK293 cell line, stably expressing mCRTH2 (hereafter referred to as mCRTH2-HEK cells) was generated under G418 (Gibco #11811) selection and used as described below in whole cell binding and functional inositol phosphate accumulation assays. The coding sequence of mTP (genbank accession no. D10849) was amplified by PCR from mouse spleen cDNA and inserted into pcDNA3.1(+). HEK293 cells were transiently transfected with mTP as described and assayed after 48 hr as outlined below.
mCRTH2-HEK or HEK cells transiently transfected with mTP were seeded at a density of 30.000 cells/well in poly-D-lysine coated 96-well tissue culture plates and labeled by overnight incubation in medium containing 5 μCi myo- [2-^3H]-inositol (TRK911, Amersham Biosciences). After washing, cells were stimulated with the respective ligands in the presence of 5 mM LiCl (HBSS, GIBCO cat. 14025–050, 45 min, 37°C) and the inositol phosphate fraction was quantified using a scintillation proximity assay (SPA) as described previously. To facilitate inositol phosphate generation by the Gi-selective CRTH2 receptor, mCRTH2-HEK cells were transiently transfected with a promiscuous Gα protein [29].
(§2) was performed using the Prism 3.0 software (GraphPad Software, San Diego) as described previously with the following exceptions: Binding data from competition binding assays were normalized to percent of specific binding of [^3H]PGD2 or [^3H]SQ29548 and the Ki was then determined using the Cheng-Prusoff equation Ki = IC50/(1+L/Kd), where L is the concentration of radioactive ligand and Kd is its dissociation constant. For Schild analysis, global fitting using the Gaddum/Schild competitive interaction model was applied after the functional concentration-response curves for the agonists PGD2 or U46619 in the absence or presence of various antagonist concentrations were normalized to percent of the maximal response obtained by agonist alone.

mCRTH2 = molecular target: T2, mCRTH2 (Mus musculus, UniProt Q9Z2J6); assay: mCRTH2 whole cell competition binding ([3H]PGD2); details: displacement of [3H]PGD2, mCRTH2-HEK cells
T2 construct: expressed in transfected cells
T2 sequence (Q9Z2J6 1-382): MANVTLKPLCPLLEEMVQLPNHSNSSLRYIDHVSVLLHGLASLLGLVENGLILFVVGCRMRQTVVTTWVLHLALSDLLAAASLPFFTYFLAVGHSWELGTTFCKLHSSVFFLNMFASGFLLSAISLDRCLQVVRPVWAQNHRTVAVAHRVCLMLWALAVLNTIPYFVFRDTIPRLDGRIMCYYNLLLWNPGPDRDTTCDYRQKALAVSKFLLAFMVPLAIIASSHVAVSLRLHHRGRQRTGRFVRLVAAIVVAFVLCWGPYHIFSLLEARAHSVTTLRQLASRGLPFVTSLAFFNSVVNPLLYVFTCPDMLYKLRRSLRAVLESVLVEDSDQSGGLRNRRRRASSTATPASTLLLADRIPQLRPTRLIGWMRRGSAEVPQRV
Excerpt: as §1
Binding assays were performed essentially as described previously. In brief, mCRTH2-HEK cells or HEK cells transiently transfected with mTP were seeded into white 96 well plates (Costar #3917) at a density of 30.000 cells/well. About 18–24 hr later, whole cell competition binding experiments were performed using 0.8 nM [^3H]PGD2 (Amersham #TRK734, 166 Ci/mmol) or 0.7 nM [^3H]SQ29548 (PerkinElmer #NET-936, 48.2 Ci/mmol), for mCRTH2 and mTP respectively. Total and nonspecific binding were determined in the absence and presence of 10 μM PGD2 for mCRTH2 and 10 μM U46619 for mTXA2 receptors.
as §2

mTP [2] = molecular target: T1, mTP; assay: mTP whole cell competition binding ([3H]SQ29548); details: displacement of [3H]SQ29548, HEK cells transfected with mTP
Excerpt: as §1
Binding assays were performed essentially as described previously. […] Total and nonspecific binding were determined in the absence and presence of 10 μM PGD2 for mCRTH2 and 10 μM U46619 for mTXA2 receptors.
was performed using the Prism 3.0 software (GraphPad Software, San Diego) as described previously with the following exceptions: Binding data from competition binding assays were normalized to percent of specific binding of [^3H]PGD2 or [^3H]SQ29548 and the Ki was then determined using the Cheng-Prusoff equation Ki = IC50/(1+L/Kd), where L is the concentration of radioactive ligand and Kd is its dissociation constant. […]

| SMILES | effect on signaling of mTP (mTP [1]; InsP functional assay) | pKi mCRTH2 (mCRTH2) | Ki (mCRTH2; printed in brackets after pKi, read-out: Ki mCRTH2) [nM] | pKi mTP (mTP [2]) | Schild slope mTP (mTP [1]; Schild analysis, U46619 concentration-response, InsP) | Kb (mTP [1]; Schild analysis, U46619 concentration-response, InsP, read-out: pA2 mTP (converted)) [nM] | Ki (mCRTH2; read-out: pKi mCRTH2 (converted)) [nM] | Ki (mTP [2]; read-out: pKi mTP (converted)) [nM] |
| --- | --- | --- | --- | --- | --- | --- | --- | --- |
| CN(C1CCc2c(c3ccccc3n2CC(=O)O)C1)S(=O)(=O)c1ccc(F)cc1 (centres unmarked) [TM30089] | does not interfere with signaling of mTP | 8.96 ± 0.05 | 1.1 | 5.30 ± 0.03 |  |  |  |  |
| O=C(O)CCn1c2c(c3ccccc31)C[C@H](NS(=O)(=O)c1ccc(F)cc1)CC2 [ramatroban, reference compound] |  |  |  |  | 1.35 ± 0.06 | 0.437 | 4.17 | 1.2 |
